The text below walks through data of patent US5604215A, “Steroid sulphatase inhibitors” (Imperial College of Science, Technology and Medicine, priority 1991, dated 1997).

Where two headings read alike, the source gives them in different places.

For test [1], the target named is T1, steroid sulphatase (Steryl Sulphatase EC 3.1.6.2) in MCF-7 cells (Homo sapiens, UniProt P08842).
T1 construct: intact MCF-7 human breast cancer cells; endogenous in cells; host or cells: MCF-7 human breast cancer cells
T1 sequence (P08842 22-583): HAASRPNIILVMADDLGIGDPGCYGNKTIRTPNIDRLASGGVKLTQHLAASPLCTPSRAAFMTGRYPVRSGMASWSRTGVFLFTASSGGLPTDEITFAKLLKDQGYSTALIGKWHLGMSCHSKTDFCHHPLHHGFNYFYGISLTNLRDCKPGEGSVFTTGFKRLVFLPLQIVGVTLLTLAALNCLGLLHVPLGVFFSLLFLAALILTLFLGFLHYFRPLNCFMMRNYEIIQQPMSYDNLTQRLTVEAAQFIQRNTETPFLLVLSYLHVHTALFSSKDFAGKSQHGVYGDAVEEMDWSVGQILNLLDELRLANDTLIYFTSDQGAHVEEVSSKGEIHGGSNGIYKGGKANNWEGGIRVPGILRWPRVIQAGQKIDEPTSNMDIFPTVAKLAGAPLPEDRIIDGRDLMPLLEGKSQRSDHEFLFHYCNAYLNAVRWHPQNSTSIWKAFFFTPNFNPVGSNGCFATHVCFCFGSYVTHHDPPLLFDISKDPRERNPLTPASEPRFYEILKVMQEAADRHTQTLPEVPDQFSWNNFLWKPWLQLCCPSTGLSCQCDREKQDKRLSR
In words: Inhibition of Steroid Sulphatase Activity in MCF-7 cells (intact MCF-7 human breast cancer cells, [6,7-^3 H]oestrone-3-sulphate substrate). The test is classed as cell-based. The following applies: for Steroid Sulphatase Activity in MCF-7 cells in the presence of oestrone-3-sulphonates: 10 μM, mean ± 1 S.D. n = 3, control 80.1 ± 3.3 (E1 -3-MeS: control 46.5 ± 2.3), *p ≤ 0.05 (E1 -3-BuS), **p ≤ 0.01 (EtS, CamS, MeS), E1 -3-MePhS: mean of 2 estimates, control 71.3; for inhibition at 10 µM: MCF7, Table II, inhibition over control incubations, read-out: % reduction over control (% inhibition), oestrone-3-sulphonates.

The target of test [2] is T1, steroid sulphatase (Steryl Sulphatase EC 3.1.6.2) in MCF-7 cells. Described as above. The test is classed as cell-based. How it is done:
Steroid sulphatase is defined as: Steryl Sulphatase EC 3.1.6.2.
Steroid sulphatase activity was measured in vitro using intact MCF-7 human breast cancer cells. This hormone dependent cell line is widely used to study the control of human breast cancer cell growth. […] Up to 30 replicate 25 cm^2 tissue culture flasks were seeded with approximately 1×10^5 cells/flask using the above medium. Cells were grown to 80% confluency and medium was changed every third day.
Intact monolayers of MCF-7 cells in triplicate 25 cm^2 tissue culture flasks were washed with Earle's Balanced Salt Solution (EBSS from ICN Flow, High Wycombe, U.K.) and incubated for […] at 37° C. with 5 pmol (7×10^5 dpm) [6,7-^3 H]oestrone-3-sulphate (specific activity 60 Ci/mmol from New England Nuclear, Boston, Mass., U.S.A.) in serum-free MEM (2.5 ml) together with 10 μM of each of four oestrone-3-phosphonates:
After incubation each flask was cooled and the medium (1 ml) was pipetted into separate tubes containing [^14 C]oestrone (7×10^3 dpm) (specific activity […] from Amersham International Radiochemical Centre, Amersham, U.K.). The mixture was shaken thoroughly for 30 seconds with toluene (5 ml). […] A portion (2 ml) of the organic phase was removed, evaporated and the ^3 H and ^14 C content of the residue determined by scintillation spectrometry. The mass of oestrone-3-sulphate hydrolysed was calculated from the ^3 H counts obtained (corrected for the volumes of the medium and organic phase used, and for recovery of [^14 C]oestrone added) and the specific activity of the substrate. […] The number of cell nuclei per flask was determined using a Coulter Counter after treating the cell monolayers with Zaponin.
Results are expressed as the mean ±1 S.D. of the total product (oestrone+oestradiol) formed during the incubation period (20 hours) calculated for 10^6 cells and as a percentage reduction (inhibition) over incubations containing no oestrone-3-phosphonate for values showing statistical significance. […]

In test [3] the target is T2, steroid sulphatase in placental microsomes (Homo sapiens, UniProt P08842).
T2 construct: Sulphatase-positive human placenta from normal term pregnancies; from tissue; host or cells: human term placenta (Obstetric Ward, St. Mary's Hospital, London), 2000 g supernatant of the homogenate
T2 sequence (P08842 22-583): T1 sequence (P08842 22-583)
Kind of test: Inhibition of Steroid Sulphatase Activity in Placental Microsomes ([6,7-^3 H]oestrone-3-sulphate substrate). The test is classed as biochemical. The note with it: 20 μM oestrone-3-sulphate, 100 μg/ml protein, 20 minutes, 37° C., calculated IC50. How it is done:
Sulphatase-positive human placenta from normal term pregnancies (Obstetric Ward, St. Mary's Hospital, London) were thoroughly minced with scissors and washed once with cold phosphate buffer (pH 7.4, 50 mM) then re-suspended in cold phosphate buffer (5 ml/g tissue). Homogenisation was accomplished with an Ultra-Turrax homogeniser, using three 10 second bursts separated by 2 minute cooling periods in ice. Nuclei and cell debris were removed by centrifuging (4° C.) at 2000 g for 30 minutes and portions (2 ml) of the supernatent were stored at -20° C. The protein concentration of the supernatents was determined by the method of Bradford (Anal. Biochem., 72, 248-254 (1976)).
Incubations (1 ml) were carried out using a protein concentration of 100 μg/ml, substrate concentration of 20 μM [6,7-^3 H]oestrone-3-sulphate (specific activity 60 Ci/mmol from New England Nuclear, Boston, Mass., U.S.A.) and an incubation time of 20 minutes at 37° C. The following oestrone-3-phosphonates were added to separate samples at a range of concentrations individually adjusted to span the 50% inhibition level:
After incubation each sample was cooled and the medium (1 ml) was pipetted into separate tubes containing [^14 C]oestrone (7×10^3 dpm) (specific activity […] from Amersham International Radiochemical Centre, Amersham, U.K.). The mixture was shaken thoroughly for 30 seconds with toluene (5 ml). […] A portion (2 ml) of the organic phase was removed, evaporated and the ^3 H and ^14 C content of the residue determined by scintillation spectrometry. The mass of oestrone-3-sulphate hydrolysed was calculated from the ^3 H counts obtained (corrected for the volumes of medium and organic phase used, and for recovery of [^14 C]oestrone added) and the specific activity of substrate.
Results for steroid sulphatase activity are expressed in Table III as calculated IC50 values (i.e. the concentration of oestrone-3-phosphonate which produced 50% inhibition in relation to control). […]

[4] abbreviates: Table IV, read-out: Steroid Sulphatase Activity in placental microsomes in the presence of oestrone-3-sulphonates (IC50).

For `CCCCS(=O)(=O)Oc1ccc2c(c1)CC[C@@H]1[C@@H]2CC[C@]2(C)C(=O)CC[C@@H]12` [E1-3-BuS, oestrone-3-n-butylsulphonate], in test [1], the “Steroid Sulphatase Activity in MCF-7 cells in the presence of oestrone-3-sulphonates” value is listed as 66.8 ± 3.3 fmol/20 hr/10^6 cells and the inhibition (in general, how much of the control response was suppressed) at 10 µM stood at 16.6%.

Consider `CC1(C)C2CCC1(CS(=O)(=O)Oc1ccc3c(c1)CC[C@@H]1[C@@H]3CC[C@]3(C)C(=O)CC[C@@H]13)C(=O)C2` (stereo partly drawn) [E1-3-CamS, oestrone-3-camphorylsulphonate], for which, in test [1], the “Steroid Sulphatase Activity in MCF-7 cells in the presence of oestrone-3-sulphonates” value is 62.7 ± 1.8 fmol/20 hr/10^6 cells and the inhibition at 10 µM turned out to be 21.7%.

For the compound `CCS(=O)(=O)Oc1ccc2c(c1)CC[C@@H]1[C@@H]2CC[C@]2(C)C(=O)CC[C@@H]12` [E1-3-EtS, oestrone-3-ethylsulphonate], in test [1], the “Steroid Sulphatase Activity in MCF-7 cells in the presence of oestrone-3-sulphonates” value is reported as 58.4 ± 1.9 fmol/20 hr/10^6 cells and the inhibition at 10 µM was determined as 27.1%.

As for `C[C@]12CC[C@@H]3c4ccc(O[PH](=O)O)cc4CC[C@H]3[C@@H]1CCC2=O` [E1-3-HP, oestrone-3-hydrogen-phosphonate], in test [2] (MCF7, Table I, inhibition over incubations containing no oestrone-3-phosphonate, read-out: % reduction over control (% inhibition), oestrone-3-phosphonates), the inhibition at 10 µM was found to be 80.1%. The IC50 (in general, the midpoint of a concentration-inhibition curve) in test [3] (Table III, read-out: Steroid Sulphatase Activity in placental microsomes in the presence of oestrone-3-phosphonates (IC50)) was 5000 µM.

Turning to `Cc1ccc(S(=O)(=O)Oc2ccc3c(c2)CC[C@@H]2[C@@H]3CC[C@]3(C)C(=O)CC[C@@H]23)cc1` [E1-3-MePhS, oestrone-3-p-toluenesulphonate], the IC50 in test [3] (setting [4]) is 130 µM. The inhibition at 10 µM in test [1] was found to be 90.5%.

Consider `C[C@]12CC[C@@H]3c4ccc(OS(C)(=O)=O)cc4CC[C@H]3[C@@H]1CCC2=O` [E1-3-MeS, oestrone-3-methylsulphonate], for which, in test [3] (setting [4]), the IC50 was 205 µM. Besides, in test [1], the “Steroid Sulphatase Activity in MCF-7 cells in the presence of oestrone-3-sulphonates” value was 21.3 ± 3.5 fmol/20 hr/10^6 cells and the inhibition at 10 µM is 54.2%.

Turning to `C[C@]12CC[C@@H]3c4ccc(OP(=O)(O)c5ccccc5)cc4CC[C@H]3[C@@H]1CCC2=O` [E1-3-PhP, oestrone-3-phenylphosphonate], the “% reduction over control (% inhibition), oestrone-3-phosphonates” value in test [2] (10 μM, Table I, inhibition over incubations containing no oestrone-3-phosphonate) came out at 70.3%. Also, in test [2] (10 μM, mean ± 1 S.D. n = 3, control 46.5 ± 2.3, ***p ≤ 0.001, E1 -3-HP: mean of 2 estimates, control 71.3), the “Steroid Sulphatase Activity in MCF-7 cells in the presence of oestrone-3-phosphonates” value is listed as 13.8 ± 0.7 fmol/20 hr/10^6 cells.
